{
  "source": "ChEMBL document CHEMBL5653631",
  "about": "“A Potent and Selective ULK1 Inhibitor Suppresses Autophagy and Sensitizes Cancer Cells to Nutrient Stress” (iScience, 2018)",
  "key": {"[1]": {"target": "T1, Serine/threonine-protein kinase D3 (Homo sapiens) (UniProt O94806)", "T1 sequence (whole entry)": "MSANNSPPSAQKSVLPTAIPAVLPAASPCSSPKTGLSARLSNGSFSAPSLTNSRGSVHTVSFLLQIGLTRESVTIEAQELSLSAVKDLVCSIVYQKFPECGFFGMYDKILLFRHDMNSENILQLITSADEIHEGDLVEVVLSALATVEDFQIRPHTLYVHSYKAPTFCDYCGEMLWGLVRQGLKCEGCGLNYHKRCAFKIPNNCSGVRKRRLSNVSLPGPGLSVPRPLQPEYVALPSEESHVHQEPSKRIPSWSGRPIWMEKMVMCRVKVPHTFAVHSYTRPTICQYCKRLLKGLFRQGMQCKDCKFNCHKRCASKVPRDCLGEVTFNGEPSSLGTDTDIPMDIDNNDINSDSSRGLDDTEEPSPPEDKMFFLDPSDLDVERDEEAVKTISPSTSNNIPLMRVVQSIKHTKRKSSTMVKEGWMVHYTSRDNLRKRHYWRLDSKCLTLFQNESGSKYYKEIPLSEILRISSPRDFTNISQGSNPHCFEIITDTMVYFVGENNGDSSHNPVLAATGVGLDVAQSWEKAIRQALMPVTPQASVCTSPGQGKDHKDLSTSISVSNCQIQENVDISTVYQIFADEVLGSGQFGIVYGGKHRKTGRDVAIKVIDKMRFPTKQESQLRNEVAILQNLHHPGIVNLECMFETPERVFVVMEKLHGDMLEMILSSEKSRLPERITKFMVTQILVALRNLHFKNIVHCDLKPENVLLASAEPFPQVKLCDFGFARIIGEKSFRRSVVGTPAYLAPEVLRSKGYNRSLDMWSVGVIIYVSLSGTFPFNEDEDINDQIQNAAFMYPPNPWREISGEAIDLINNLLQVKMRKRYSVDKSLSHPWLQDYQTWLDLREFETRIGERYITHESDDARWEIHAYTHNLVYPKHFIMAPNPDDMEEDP", "assay": "Inhibition of human recombinant PKD3 at 500 nM in presence of ATP by radiometric assay relative to control"}, "[2]": {"target": "Serine/threonine-protein kinase PLK3 (Homo sapiens) (UniProt Q9H4B4)", "sequence (Q9H4B4 whole entry, looked up)": "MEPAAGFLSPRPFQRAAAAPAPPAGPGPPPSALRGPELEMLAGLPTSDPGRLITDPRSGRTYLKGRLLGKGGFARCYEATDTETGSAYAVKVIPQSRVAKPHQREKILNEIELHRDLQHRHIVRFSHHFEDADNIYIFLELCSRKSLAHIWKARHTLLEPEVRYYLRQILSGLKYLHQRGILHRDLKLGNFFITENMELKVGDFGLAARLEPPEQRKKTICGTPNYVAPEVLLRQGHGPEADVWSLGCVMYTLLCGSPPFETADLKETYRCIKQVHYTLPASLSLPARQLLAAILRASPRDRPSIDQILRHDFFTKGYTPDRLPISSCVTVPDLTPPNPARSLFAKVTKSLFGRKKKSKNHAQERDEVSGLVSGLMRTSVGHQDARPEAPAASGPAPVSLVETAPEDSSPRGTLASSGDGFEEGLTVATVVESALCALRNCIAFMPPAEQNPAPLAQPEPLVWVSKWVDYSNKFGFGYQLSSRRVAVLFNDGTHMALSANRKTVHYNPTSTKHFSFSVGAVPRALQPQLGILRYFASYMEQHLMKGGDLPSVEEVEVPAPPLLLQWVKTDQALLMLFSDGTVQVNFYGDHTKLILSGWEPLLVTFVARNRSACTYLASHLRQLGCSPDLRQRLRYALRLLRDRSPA", "assay": "Inhibition of human recombinant PLK3 at 500 nM in presence of ATP by radiometric assay relative to control"}, "[3]": {"target": "T2, Serine/threonine-protein kinase Nek11 (Homo sapiens) (UniProt Q8NG66)", "T2 sequence (whole entry)": "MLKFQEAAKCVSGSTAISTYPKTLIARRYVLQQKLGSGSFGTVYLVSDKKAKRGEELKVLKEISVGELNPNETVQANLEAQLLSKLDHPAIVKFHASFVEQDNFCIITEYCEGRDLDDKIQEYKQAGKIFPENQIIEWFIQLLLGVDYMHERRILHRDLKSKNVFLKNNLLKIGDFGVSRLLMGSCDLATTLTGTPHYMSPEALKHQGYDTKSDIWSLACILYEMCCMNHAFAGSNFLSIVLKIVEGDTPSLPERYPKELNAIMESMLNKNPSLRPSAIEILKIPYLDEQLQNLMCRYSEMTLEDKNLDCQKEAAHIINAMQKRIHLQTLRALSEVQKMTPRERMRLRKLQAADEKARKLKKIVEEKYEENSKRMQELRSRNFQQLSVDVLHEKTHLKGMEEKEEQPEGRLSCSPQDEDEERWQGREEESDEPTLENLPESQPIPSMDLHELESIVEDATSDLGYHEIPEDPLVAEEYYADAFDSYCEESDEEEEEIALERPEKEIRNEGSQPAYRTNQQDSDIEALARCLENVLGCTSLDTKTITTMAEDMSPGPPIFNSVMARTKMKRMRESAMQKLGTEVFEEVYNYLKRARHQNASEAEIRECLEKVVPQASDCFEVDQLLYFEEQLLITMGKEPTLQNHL", "assay": "Inhibition of human recombinant NEK11 at 500 nM related to control ULK1"}, "[4]": {"target": "Proto-oncogene tyrosine-protein kinase Src (Homo sapiens) (UniProt P12931)", "sequence (P12931 2-536 limits assumed)": "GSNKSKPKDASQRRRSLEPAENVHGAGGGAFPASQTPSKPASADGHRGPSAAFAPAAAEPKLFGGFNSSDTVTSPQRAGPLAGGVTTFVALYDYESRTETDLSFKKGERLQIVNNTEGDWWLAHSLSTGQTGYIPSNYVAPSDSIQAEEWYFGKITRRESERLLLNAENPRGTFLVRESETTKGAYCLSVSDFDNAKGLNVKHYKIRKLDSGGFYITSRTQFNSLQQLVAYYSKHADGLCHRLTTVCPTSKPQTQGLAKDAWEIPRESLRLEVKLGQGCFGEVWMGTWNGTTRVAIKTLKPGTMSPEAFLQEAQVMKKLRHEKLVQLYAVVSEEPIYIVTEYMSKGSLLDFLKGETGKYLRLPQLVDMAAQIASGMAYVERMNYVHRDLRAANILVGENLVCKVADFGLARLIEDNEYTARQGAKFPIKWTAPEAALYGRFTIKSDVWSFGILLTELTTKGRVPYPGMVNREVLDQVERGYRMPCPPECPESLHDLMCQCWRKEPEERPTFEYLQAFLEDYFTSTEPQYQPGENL", "assay": "Inhibition of human recombinant SRC at 15 nM in presence of ATP by radiometric assay relative to control"}, "[5]": {"target": "T3, Serine/threonine-protein kinase NLK (Homo sapiens) (UniProt Q9UBE8)", "T3 sequence (whole entry)": "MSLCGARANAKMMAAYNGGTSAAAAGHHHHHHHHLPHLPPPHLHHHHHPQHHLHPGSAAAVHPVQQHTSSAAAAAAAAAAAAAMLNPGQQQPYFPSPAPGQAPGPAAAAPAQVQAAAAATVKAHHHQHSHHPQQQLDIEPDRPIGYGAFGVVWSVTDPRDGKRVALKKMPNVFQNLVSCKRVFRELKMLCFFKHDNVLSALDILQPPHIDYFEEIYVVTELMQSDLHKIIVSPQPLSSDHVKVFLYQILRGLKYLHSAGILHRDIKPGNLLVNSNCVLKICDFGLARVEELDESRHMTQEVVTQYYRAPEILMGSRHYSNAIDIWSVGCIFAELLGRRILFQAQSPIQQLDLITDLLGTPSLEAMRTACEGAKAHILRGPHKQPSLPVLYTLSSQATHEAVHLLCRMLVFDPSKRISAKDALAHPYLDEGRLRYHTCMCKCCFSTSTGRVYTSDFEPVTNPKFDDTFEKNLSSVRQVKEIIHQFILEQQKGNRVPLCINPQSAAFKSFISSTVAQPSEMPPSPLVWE", "assay": "Inhibition of human recombinant NLK at 15 nM related to control ULK1"}, "[6]": {"target": "T4, Protein kinase C epsilon type (Homo sapiens) (UniProt Q02156)", "T4 sequence (whole entry)": "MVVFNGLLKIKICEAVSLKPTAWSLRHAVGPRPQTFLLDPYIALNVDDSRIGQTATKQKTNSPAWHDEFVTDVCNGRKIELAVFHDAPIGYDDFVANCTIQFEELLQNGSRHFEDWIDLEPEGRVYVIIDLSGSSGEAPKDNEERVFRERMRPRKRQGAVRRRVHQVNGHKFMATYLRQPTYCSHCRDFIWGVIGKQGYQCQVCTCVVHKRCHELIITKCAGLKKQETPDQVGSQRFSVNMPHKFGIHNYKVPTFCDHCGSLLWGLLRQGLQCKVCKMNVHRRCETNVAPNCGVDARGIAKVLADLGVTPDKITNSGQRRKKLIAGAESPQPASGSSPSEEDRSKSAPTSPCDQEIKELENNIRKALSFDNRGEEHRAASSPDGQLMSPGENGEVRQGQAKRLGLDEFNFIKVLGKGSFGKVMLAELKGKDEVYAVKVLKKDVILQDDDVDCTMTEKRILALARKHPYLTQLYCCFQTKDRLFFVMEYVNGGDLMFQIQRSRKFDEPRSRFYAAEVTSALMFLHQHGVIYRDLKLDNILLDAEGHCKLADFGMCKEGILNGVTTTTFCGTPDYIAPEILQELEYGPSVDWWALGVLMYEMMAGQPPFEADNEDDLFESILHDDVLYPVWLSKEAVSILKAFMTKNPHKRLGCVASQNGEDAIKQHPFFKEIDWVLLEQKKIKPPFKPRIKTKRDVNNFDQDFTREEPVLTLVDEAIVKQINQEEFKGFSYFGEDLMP", "assay": "Inhibition of human recombinant PKCe at 40 nM in presence of ATP by radiometric assay relative to control"}},
  "data": [
    {"smiles": "CNC(=O)c1ccccc1Oc1nc(Nc2cc(OC)c(OC)c(OC)c2)ncc1Br", "values": [
      {"measurement": "inhibition", "setting": "[1]", "value": 0, "unit": "%"},
      {"measurement": "inhibition", "setting": "[2]", "value": 0, "unit": "%"},
      {"measurement": "fold change (FC)", "setting": "[3]", "value": 0.11}
    ]},
    {"smiles": "CC(C)[C@H](NC(=O)c1cc(-c2cnn3cc(-c4ccc(OCCN5CCCCC5)cc4)cnc23)cs1)C(F)(F)F", "values": [
      {"measurement": "inhibition", "setting": "[4]", "value": 15, "unit": "%"},
      {"measurement": "fold change (FC)", "setting": "[5]", "value": 0.1}
    ]},
    {"smiles": "O=C(N[C@@H](C1CC1)C(F)(F)F)c1cc(-c2cnn3cc(-c4ccc(F)cc4)cnc23)cs1", "values": [
      {"measurement": "inhibition", "setting": "[6]", "value": 0, "unit": "%"}
    ]}
  ]
}
